Data taken from ChEMBL document CHEMBL1201862, “PubChem BioAssay data set” (2004).
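Compound exposure: 48 hours, 5 concentrations, 96-well plates. GI50 marks 50% less growth.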 Activity calls are given as the source filed them. Cut-off read from the data, not from the text of the source: active = GI50 up to about 1.1 µM and inactive = higher.

Assays:
Experiment in all cases: NCI-60 cell line screen, 48 h
HCC 2998 = test system: HCC 2998
SNB-75 = test system: SNB-75
KM12 = test system: KM12
RPMI-8226 = test system: RPMI-8226
MOLT-4 = test system: MOLT-4
OVCAR-3 = test system: OVCAR-3
SNB-19 = test system: SNB-19
SK-MEL-28 = test system: SK-MEL-28
UACC-257 = test system: UACC-257
COLO 205 = test system: COLO 205
K562 = test system: K562
CAKI-1 = test system: CAKI-1
UACC-62 = test system: UACC-62
SF-295 = test system: SF-295
HCT-15 = test system: HCT-15
HT-29 = test system: HT-29
NCI-H226 = test system: NCI-H226

Structure (SMILES)	GI50 (HCC 2998)	GI50 (SNB-75)	GI50 (KM12)	GI50 (RPMI-8226)	GI50 (MOLT-4)	GI50 (OVCAR-3)	GI50 (SNB-19)	GI50 (SK-MEL-28)	GI50 (UACC-257)	GI50 (COLO 205)	GI50 (K562)	GI50 (CAKI-1)	GI50 (UACC-62)	GI50 (SF-295)	GI50 (HCT-15)	GI50 (HT-29)	GI50 (NCI-H226)
Nc1ccc(C(=O)N/C(=C\C=C\c2ccco2)c2nc3c4c(ccc3[nH]2)C(=O)c2ccccc2C4=O)cc1	44.9 µM (inactive)	14.2 µM (inactive)	13.6 µM (inactive)	3.21 µM (inactive)	3.67 µM (inactive)	32.9 µM (inactive)	39.7 µM (inactive)	36.6 µM (inactive)	> 100 µM (inactive)	61.1 µM (inactive)	26.8 µM (inactive)	24.6 µM (inactive)	25 µM (inactive)	31.7 µM (inactive)	31.9 µM	49.7 µM (inactive)	–
O=C1C(c2ccccc2)=C(c2ccccc2)C(c2ccc(Cc3ccc(C4=C(c5ccccc5)C(=O)C(c5ccccc5)=C4c4ccccc4)cc3)cc2)=C1c1ccccc1	–	> 100 µM (inactive)	> 100 µM (inactive)	> 100 µM (inactive)	> 100 µM (inactive)	> 100 µM (inactive)	> 100 µM (inactive)	–	64.9 µM (inactive)	> 100 µM (inactive)	> 100 µM (inactive)	> 100 µM (inactive)	> 100 µM (inactive)	69.5 µM (inactive)	> 100 µM	> 100 µM (inactive)	50.6 µM (inactive)
COC(=O)C(=O)C(C#N)c1ccc(Cl)c(Cl)c1 (stereo not given)	–	80 µM (inactive)	> 100 µM (inactive)	> 100 µM (inactive)	> 100 µM (inactive)	> 100 µM (inactive)	–	> 100 µM (inactive)	> 100 µM (inactive)	–	> 100 µM (inactive)	> 100 µM (inactive)	> 100 µM (inactive)	> 100 µM (inactive)	> 100 µM	> 100 µM (inactive)	> 100 µM (inactive)
NC(CCCCN/C=C1/N=C(c2ccccc2)OC1=O)C(=O)O (stereo not given)	> 100 µM (inactive)	> 100 µM (inactive)	–	> 100 µM (inactive)	> 100 µM (inactive)	> 100 µM (inactive)	> 100 µM (inactive)	> 100 µM (inactive)	> 100 µM (inactive)	> 100 µM (inactive)	53.6 µM (inactive)	–	> 100 µM (inactive)	> 100 µM (inactive)	> 100 µM	> 100 µM (inactive)	> 100 µM (inactive)
CC(C)c1cccc(C(C)C)c1NC(=O)C(=O)Cc1nc2ccc([N+](=O)[O-])cc2nc1O	39.6 µM (inactive)	> 100 µM (inactive)	13.5 µM (inactive)	–	74.1 µM (inactive)	> 100 µM (inactive)	> 100 µM (inactive)	86.1 µM (inactive)	69.2 µM (inactive)	41.8 µM (inactive)	30.2 µM (inactive)	75.3 µM (inactive)	24.5 µM (inactive)	> 100 µM (inactive)	9.31 µM	> 100 µM (inactive)	> 100 µM (inactive)
CN(C)CCNC(=O)c1c2ccccc2cc2ccccc12	32.7 µM (inactive)	42.9 µM (inactive)	42.8 µM (inactive)	17.5 µM (inactive)	3.99 µM (inactive)	93.8 µM (inactive)	> 100 µM (inactive)	25.5 µM (inactive)	18.5 µM (inactive)	18.2 µM (inactive)	23.2 µM (inactive)	–	20 µM (inactive)	61.2 µM (inactive)	36 µM	39.1 µM (inactive)	12 µM (inactive)
O=C(N/C(=C\c1ccc([N+](=O)[O-])cc1)c1nc2c(O)nc(S)nc2[nH]1)c1ccccc1	> 100 µM (inactive)	–	> 100 µM (inactive)	–	88.7 µM (inactive)	> 100 µM (inactive)	> 100 µM (inactive)	> 100 µM (inactive)	–	> 100 µM (inactive)	73.1 µM (inactive)	> 100 µM (inactive)	> 100 µM (inactive)	> 100 µM (inactive)	> 100 µM	> 100 µM (inactive)	–
